Results: paper PMC5618426, “APETx4, a Novel Sea Anemone Toxin and a Modulator of the Cancer-Relevant Potassium Channel KV10.1” (Marine Drugs, 2017)
“And” between values parts separate entries of the source, which are not always exact repeats. Identical values can stand only once. Like-named read-outs stand apart in the source and are kept apart here. Positions of bridges follow the written chain, without caps; N, C: chain ends. No end group written: not given here.

How the values were obtained:
hKV10.1a (hEag1) = hKV10.1a (hEag1) (Homo sapiens, UniProt O95259); assay: two-electrode voltage clamp, KV10.1 in Xenopus laevis oocytes; format: cell-based
Method: For the expression of the ion channels (rNaV1.4, hNaV1.5, mNaV1.6, hKV1.1, rKV1.3, hKV1.4, hKV1.5, hKV2.1, hKV10.1a and hKV11.1,) in Xenopus oocytes, the plasmids were linearized and subsequently transcribed using the T7 or SP6 mMESSAGE-mMACHINE transcription kit (Ambion®, Carlsbad, CA, USA).
Stage V-VI Xenopus laevis oocytes were isolated by partial ovariectomy. The animals were anesthetized by a 15 min submersion in 0.1% tricaine methane sulfonate (pH 7.0). Isolated oocytes were defolliculated with 2 mg/mL collagenase.
Defolliculated oocytes were injected with 50 nL of cRNA at a concentration of 1 ng/nL using a micro-injector (Drummond Scientific®, Broomall, PA, USA). The oocytes were incubated in a solution containing (in mM): NaCl, 96; KCl, 2; CaCl2, 1.8; MgCl2, 2 and HEPES, 5 (pH 7.4), supplemented with 50 mg/L gentamycin sulfate.
Two-electrode voltage-clamp recordings were performed at room temperature (18–22 °C) using an Geneclamp 500B Voltage and Patch Clamp Amplifier (Axon Instruments, Union City, CA, USA, controlled by a Axon Digidata 1550 Low-Noise Data Acquisition System (Axon Instruments). Whole cell currents from oocytes were recorded 1–4 days after injection. The normal bath solution (ND96) composition was (in mM): NaCl, 96; KCl, 2; CaCl2, 1.8; MgCl2, 2 and HEPES, 5 (pH 7.4). The high potassium solution (HK) composition was in mM): NaCl, 2; KCl, 96; CaCl2, 1.8; MgCl2, 2 and HEPES, 5 (pH 7.4). Voltage and current electrodes were filled with 3 M KCl. Resistances of both electrodes were kept between 0.5 and 1.5 MΩ. The elicited KV1.x end KV2.1 currents were filtered at 500 Hz and sampled at 2 kHz, KV10.1 currents were filtered at 1 kHz and sampled at 2 kHz, hERG currents were filtered at 1 kHz and sampled at 10 kHz and the sodium currents were filtered at 2 kHz and sampled at 20 kHz using a four-pole low-pass Bessel filter. Leak subtraction was performed using a -P/4 protocol.
KV10.1 currents were evoked by 2 s depolarizing pulses to 0 mV from a holding potential of −90 mV. KV11.1 (hERG) peak and tail currents were generated by a 2.5 s prepulse from −90 mV to 40 mV followed by a 2.5 s pulse to −120 mV. KV1.x channel currents were evoked by 500 ms depolarizations to 0 mV from a holding potential of −90 mV followed by a 500 ms pulse to −50 mV. KV2.1 currents were elicited by 500 ms pulses to +20 mV from a holding potential of −90 mV. NaV currents were evoked by a 100 ms depolarizations to 0 mV from the holding potential.
[…]. The curve was fitted with the logistic dose-response equation, y = A1−A2/1+ (IC50/[toxin])^nH + A2 where y represents the percentage of current inhibition, A1 the initial inhibition at the lowest toxin concentration (0%), A2 the final inhibition at the highest toxin concentration, IC50 the half maximal inhibitory toxin concentration and ^nH the Hill coefficient.
The voltage-dependent activation of the KV10.1 channels was investigated by 1000 ms activating steps from the holding potential −90 mV to 65 mV with 5 mV increments. The normalized current amplitudes were plotted against the corresponding pulse potentials and fitted with the Boltzmann equation, y = A1−A2/1+ e^(V−V1/2)/k + A2, where y represents the normalized current (I/Imax), A1 is the initial y-value(-∞) and A2 is the final y-value, Imax is the maximal current, V is the test voltage, V1/2 is the half-maximal voltage and k is the slope factor.
The voltage-dependent inactivation of KV10.1 channels was studied by 1.5 s prepulses from the holding potential ranging from −140 mV to 30 mV with 10 mV steps. These pulses were followed by a 0.5 s test pulse to 30 mV [17]. The normalized peak current amplitudes (I2/I2,max) measured during the test pulse and were plotted against the prepulses and fitted with the Boltzmann equation.
All electrophysiological data are presented as means ± S.E.M of n ≥ 3 independent experiments unless otherwise indicated. […]

LNCaP = assay: proliferation (IncuCyte confluency); format: cell-based, human; settings: cell confluency (%) over time, n = 4 wells
Method: (§1) The cell proliferation was quantified in terms of cell confluency (%) over time; data points were collected every hour. […] LNCaP, it is presumed that the observed effect cannot only be attributed to KV10.1 inhibition (Figure S5).
(§2) Cell lines SH-SY5Y (ACC 209), LNCaP (ACC 256) and NIH-3T3 (ACC 59) were purchased from DSMZ (Germany). MDA-MB-435S (HTB 129) and hTERT RPE-1 (CRL 4000) were obtained from ATCC (USA). Cell lines were cultured in their recommended media supplemented with 10% or 15% FCS (PAA laboratories, Cölbe, Germany) at 37 °C in humidified 5% CO2 atmosphere. All media were purchased from ThermoFisher Scientific (Waltham, MA, USA).
(§3) Cell proliferation, cytotoxicity and apoptosis were assessed in a 96-well microtiter plate by live-cell imaging using an IncuCyte Zoom System (Essen BioScience, Welwyn Garden City, UK). Cell proliferation was monitored in terms of cell confluency (%). Cell cytotoxicity was assessed by the CellTox Green Dye assay (Promega, Madison, WI, USA). The IncuCyte Caspase-3/7 apoptosis assay (Essen BioScience, UK) was used to evaluate the effect of APETx4 on the apoptotic pathway.
(§4) Live-cell imaging data were collected from the IncuCyte Zoom software and analyzed using GraphPad Prism 6 software. Proliferation was measured as Phase Object Confluence (%), cytotoxicity and apoptosis were measured as Green Object Count (1/mm²). Data points were collected every hour. In order to improve the clarity of the graphs, only the data points for every 5 h are shown. All data are represented as mean ± S.E.M of n = 4 different wells.

MDA-MB-435S = assay: proliferation (IncuCyte confluency); format: cell-based, human; settings: cell confluency (%) over time, n = 4 wells
Method: as §1, §2, §3, §4

SH-SY5Y = assay: proliferation (IncuCyte confluency); format: cell-based, human; settings: cell confluency (%) over time, n = 4 wells
Method: as §1, §2, §3, §4

[1] = concentration-response curve, logistic fit

Chain of hKV10.1a (hEag1) (O95259 other isoform, or with tags, fused parts or gaps): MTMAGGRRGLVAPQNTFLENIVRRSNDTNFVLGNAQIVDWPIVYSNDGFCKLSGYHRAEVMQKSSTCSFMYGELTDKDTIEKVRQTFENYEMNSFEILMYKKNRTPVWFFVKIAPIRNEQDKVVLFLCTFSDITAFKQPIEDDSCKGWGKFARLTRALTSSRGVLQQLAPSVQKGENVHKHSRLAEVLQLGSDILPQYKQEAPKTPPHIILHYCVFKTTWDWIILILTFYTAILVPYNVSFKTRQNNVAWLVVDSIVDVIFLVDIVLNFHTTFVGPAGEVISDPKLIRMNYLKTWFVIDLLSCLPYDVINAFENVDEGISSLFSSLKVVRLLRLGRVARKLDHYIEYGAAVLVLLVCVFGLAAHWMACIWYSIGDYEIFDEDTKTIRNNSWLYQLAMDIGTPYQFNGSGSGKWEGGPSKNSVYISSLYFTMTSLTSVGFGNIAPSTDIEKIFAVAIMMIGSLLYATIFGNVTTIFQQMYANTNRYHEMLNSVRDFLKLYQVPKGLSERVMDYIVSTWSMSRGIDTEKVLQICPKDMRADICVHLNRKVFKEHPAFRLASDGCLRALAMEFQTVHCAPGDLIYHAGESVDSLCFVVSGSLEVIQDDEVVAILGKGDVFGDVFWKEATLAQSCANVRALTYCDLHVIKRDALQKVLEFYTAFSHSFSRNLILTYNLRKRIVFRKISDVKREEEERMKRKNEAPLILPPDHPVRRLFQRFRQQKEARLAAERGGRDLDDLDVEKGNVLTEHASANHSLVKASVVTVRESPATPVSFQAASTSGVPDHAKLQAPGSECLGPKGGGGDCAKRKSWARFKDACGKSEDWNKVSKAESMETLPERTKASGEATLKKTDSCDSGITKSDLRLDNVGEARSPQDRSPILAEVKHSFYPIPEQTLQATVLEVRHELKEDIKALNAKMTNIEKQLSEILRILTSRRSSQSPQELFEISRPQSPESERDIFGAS

## GTTCYCGKTIGIYWFGKYSCPTNRGYTGSCPYFLGICCYPVD (disulfide 4-37, 6-30, 20-38) [APETx4]
hKV10.1a (hEag1); 1.6 µM APETx4, 2 s pulse to 0 mV from −90 mV, ND96, pH 7.4, 18–22 °C, mean ± SEM, n = 3
  inhibition of the outward KV10.1 current: highest activity on KV10.1
hKV10.1a (hEag1); 1.6 µM APETx4, 2 s pulse to 0 mV from −90 mV, ND96, pH 7.4, 18–22 °C, mean ± SEM, n = 3, read-out: inhibition of the outward KV10.1 current
  inhibition at 1.6 µM: 76 ± 2%
hKV10.1a (hEag1); 1.6 µM APETx4, HK solution (96 mM Ko), control 15.3 ± 1.4, n = 3, NS
  slope factor of activation: 13.9 ± 0.8
hKV10.1a (hEag1); 1.6 µM APETx4, HK solution (96 mM Ko), control 41.3 ± 1.4 mV, n = 3
  half-maximal voltage V1/2 of activation: 50.9 ± 0.8 mV
hKV10.1a (hEag1); 1.6 µM APETx4, HK solution (96 mM Ko), n = 3, p < 0.05
  shift of V1/2: 9.6 ± 1.7 mV
hKV10.1a (hEag1); 1.6 µM APETx4, ND96 (2 mM Ko), Boltzmann fit, n = 3, p < 0.05
  shift of the activation curve towards more positive potentials: 17.7 ± 1.1 mV
hKV10.1a (hEag1); 1.6 µM APETx4, ND96 (2 mM Ko), control 20.7 ± 0.6 mV, n = 3, p < 0.05
  slope factor k of activation: 17.2 ± 0.3 mV
hKV10.1a (hEag1); 1.6 µM APETx4, ND96 (2 mM Ko), control 26.4 ± 0.9 mV, n = 3, p < 0.05
  half-maximal voltage V1/2 of activation: 44.1 ± 0.7 mV
hKV10.1a (hEag1); 1.6 µM APETx4, control 653 ± 42 ms, n = 3, p < 0.05
  rise time tr (10% to 90%): 1246 ± 96 ms
hKV10.1a (hEag1); 1.6 µM APETx4, exponential fit, control 376 ± 60 ms, n = 3, p < 0.05
  time constant τ of KV10.1 activation: 1209 ± 229 ms
hKV10.1a (hEag1); 1.6 μM APETx4, from the holding potential, non-normalized inhibited current (1-It/Ic)
  reduction of KV10.1 current, pulse to 65 mV: 29 ± 6%
hKV10.1a (hEag1); 1.6 µM APETx4, held at −90 mV for 10 min during addition, pulse to 0 mV, versus control current
  current reduction upon first stimulation after closed-state incubation: 85.2 ± 1.9%
hKV10.1a (hEag1); 1.6 μM APETx4, non-normalized inhibited current (1-It/Ic), read-out: inhibition of KV10.1 current, pulse −90 mV to 0 mV
  inhibition at 1.6 µM: 79 ± 4%
hKV10.1a (hEag1); 1.6 µM APETx4, one phase decay fit of I/Imax versus incubation time
  time constant τ of onset of inhibition (normalized current decrease): 97 ± 7 s
hKV10.1a (hEag1); 1.6 μM APETx4, reduced inhibition at more positive potentials, HK solution
  voltage dependence of current inhibition: a similar effect was observed
hKV10.1a (hEag1); 7 concentrations, logistic fit, 2 s pulse to 0 mV from −90 mV, ND96, mean ± SEM, n ≥ 3, read-out: IC50 for KV10.1 current inhibition
  IC50: 1010 ± 10 nM
hKV10.1a (hEag1); HK solution (96 mM Ko), after toxin addition (1.6 µM)
  inward current at negative pulse potentials: no inward currents were observed
hKV10.1a (hEag1); [1]
  Hill coefficient: 3.8 ± 0.3 and ~ 4
  maximal current inhibition: 88.3 ± 0.9%
hKV10.1a (hEag1); two-pulse protocol, prepulse −140 to 30 mV, test pulse 30 mV, control or toxin condition
  inactivation properties of KV10.1: No apparent inactivation was observed
LNCaP
  antiproliferative effect: concentration-dependent antiproliferative effect
MDA-MB-435S
  antiproliferative effect: concentration-dependent antiproliferative effect
SH-SY5Y
  antiproliferative effect: concentration-dependent antiproliferative effect
